{"source": "patent US4221805A", "about": "“Method of inducing platelet antiaggregation activity” (priority 1978, dated 1980)", "key": {"stomach (gastric lesion) [1]": {"tested_on": "stomach (gastric lesion)", "assay": "Ulcerogenic activity in rats after a single administration", "assay_type": "in vivo, male albino rats, Wistar strain", "conditions": "rats; for Average degree of lesion + E.E.: scale 0-7, controls 0.65 ± 0.1", "procedure": "The ulcerogenic activity of MRAP2 was tested both after a single administration of the drug, and after prolonged administration.\nIn these tests, a total of 70 male albino rats of Wistar strain were used, having a weight of 200±20 grams.\nThe MRAP2 was administered diluted in tap water.\n40 rats, fasted for 18 hours before the experiment, were divided into four batches of ten animals and treated orally as follows:\n3rd group: MRAP2 (50 mg/kg)\n4th group: MRAP2 (125 mg/kg).\nThe animals were killed after six hours. The stomach was withdrawn and the gastric lesion index was evaluated in terms of an arbitrary scale of values lying between 0. and 7 based on previous models proposed by other authors.\nFurthermore, the treatment was randomised in order to eliminate any possible polarisation of the data.\nThe points given for gastric ulcerative lesions were as follows:\n(1) hyperaemia or slight capillary obstruction; or slight loss of the epithelium; or some petechiae even with pale mucosa without hyperaemia;\n(2) diffuse capillary obstructions or numerous petechiae; or diffuse loss of the epithelium; of a few surface lesions;\n(3) strong submucosa haemorrhage; or many petechiae and small surface lesions; or much anaemic mucosa (yellowish colour); or up to three small ulcers;\n(4) general pattern as in the previous numbers, plus up to ten small ulcers; or long erosions; or up to three medium sized ulcers;\n(5) pattern as in number 4, with up to 15 small ulcers; or up to 6 large ulcers;\n(6) pattern as previously, with up to ten large ulcers, plus small ulcers;\n(7) pattern as previously, plus up to ten large ulcers and small ulcers; cases of perforated ulcers."}, "[2]": {"tested_on": "cardiovascular system of cats", "assay": "Effect on the cardiovascular system of cats", "assay_type": "in vivo", "conditions": "intravenous 5 mg/kg", "procedure": "Three cats weighing 2.4-2.6 kg were used for this test. The MRAP2 was administered intravenously in a dose of 5 mg/kg, carried in a sterile physiological solution. The animals, under combined anaesthesia with ethylurethane and diallylbarbituric acid, were subjected to measurements, by means of the Battaglia-Rangoni polygraph, of the arterial pressure, the cardiac frequency, the nictitation and the electrocardiac activity, before and up to two hours after the administration of the drug."}, "stomach (gastric lesion) [3]": {"tested_on": "stomach (gastric lesion)", "assay": "Ulcerogenic activity in rats after prolonged administration", "assay_type": "in vivo, male albino rats, Wistar strain", "procedure": "The ulcerogenic activity of MRAP2 was tested both after a single administration of the drug, and after prolonged administration. In these tests, a total of 70 male albino rats of Wistar strain were used, having a weight of 200±20 grams. The MRAP2 was administered diluted in tap water. The points given for gastric ulcerative lesions were as follows: (0) no lesion; (1) hyperaemia or slight capillary obstruction; or slight loss of the epithelium; or some petechiae even with pale mucosa without hyperaemia; (2) diffuse capillary obstructions or numerous petechiae; or diffuse loss of the epithelium; of a few surface lesions; (3) strong submucosa haemorrhage; or many petechiae and small surface lesions; or much anaemic mucosa (yellowish colour); or up to three small ulcers; (4) general pattern as in the previous numbers, plus up to ten small ulcers; or long erosions; or up to three medium sized ulcers; (5) pattern as in number 4, with up to 15 small ulcers; or up to 6 large ulcers; (6) pattern as previously, with up to ten large ulcers, plus small ulcers; (7) pattern as previously, plus up to ten large ulcers and small ulcers; cases of perforated ulcers. 30 Rats were divided into three batches of ten animals each, and subjected daily over a period of six days to the following oral treatment: 1st group: controls 2nd group: MRAP2 (50 mg/kg) 3rd group: MRAP2 (125 mg/kg) Six hours after the last treatment, the animals were killed and the lesion index was evaluated following the techniques and methods previously described."}, "mice": {"tested_on": "mice", "assay": "Acute toxicity in mice, endoperitoneal administration (LD50)", "assay_type": "in vivo", "conditions": "20 animals per dose", "procedure": "(§1) A total of 240 albino mice, 120 male and 120 female, of the Swiss strain and having an average weight of about 20 grams were used. The animals were divided into groups of 10 animals each, and kept caged for some days in an environment at a constant temperature (21°±1° C.) and humidity (60±5%). They were then fasted for 24 hours before the experiment, but were given free access to water.\n(§2) The substance indicated by MRAP2 was administered, in a single administration, either orally or endoperitoneally. The LD50 was evaluated for each of the administration methods, using the method of Litchfield and Wilcoxon, J.Pharmacology, 96, 99, […], based on the mortality recorded for each group of mice over the seven days following administration.\n(§3) Six groups of 20 animals, 10 male and 10 female, which had been given the active principle dissolved in a physiological solution were used."}, "[4]": {"assay": "Acute toxicity in mice, endoperitoneal administration (LD50)", "assay_type": "in vivo", "conditions": "mouse, in vivo, ip", "procedure": "as §1, §2, §3"}}, "data": [{"smiles": "Cl.Clc1ccccc1CN1CCCC1", "note": "[MRAP2, N-(2-chlorobenzyl)-pyrrolidine hydrochloride]", "values": [{"measurement": "Average degree of lesion + E.E.", "setting": "stomach (gastric lesion) [1]; single oral 50 mg/kg", "result": "0.80 ± 0.1"}, {"measurement": "Average degree of lesion + E.E.", "setting": "stomach (gastric lesion) [1]; single oral 125 mg/kg, P <0.05 with regard to controls", "result": "1.15 ± 0.2"}, {"measurement": "incidence of ulcerative lesions (in words)", "setting": "stomach (gastric lesion) [1]; single oral administration, relative to control animals", "result": "almost identical or slightly greater than that of the control animals"}, {"measurement": "hypertensive effect", "setting": "[2]; in the four minutes following introduction of the drug", "result": "slight hypertensive effect"}, {"measurement": "undesirable effects on the cardiovascular system", "setting": "[2]; up to two hours", "result": "does not give rise to any undesirable effects on the cardiovascular system"}, {"measurement": "Average degree of lesion ± E.E.", "setting": "stomach (gastric lesion) [3]; oral 50 mg/kg daily for six days, scale 0-7, controls 0.57 ± 0.1", "result": "0.86 ± 0.2"}, {"measurement": "Average degree of lesion ± E.E.", "setting": "stomach (gastric lesion) [3]; oral 125 mg/kg daily for six days, scale 0-7, controls 0.57 ± 0.1, P <0.05 with regard to controls", "result": "1.07 ± 0.2"}, {"measurement": "ulcerogenic activity (in words)", "setting": "stomach (gastric lesion) [3]; oral daily for six days", "result": "significant only at a dose of 125 mg/kg, but even then only slight"}, {"measurement": "No. of animals dead", "setting": "mice; 75 mg/kg", "result": 0}, {"measurement": "No. of animals dead", "setting": "mice; 100 mg/kg", "result": 2}, {"measurement": "No. of animals dead", "setting": "mice; 150 mg/kg", "result": 18}, {"measurement": "No. of animals dead", "setting": "mice; 200 mg/kg", "result": 20}, {"measurement": "No. of animals dead", "setting": "mice; 300 mg/kg", "result": 20}, {"measurement": "No. of animals dead", "setting": "mice; 400 mg/kg", "result": 20}, {"measurement": "mortality at 168 h", "setting": "[4]; 75 mg/kg", "result": 0, "unit": "%"}, {"measurement": "mortality at 168 h", "setting": "[4]; 100 mg/kg", "result": 10, "unit": "%"}, {"measurement": "mortality at 168 h", "setting": "[4]; 150 mg/kg", "result": 90, "unit": "%"}, {"measurement": "mortality at 168 h", "setting": "[4]; 200 mg/kg", "result": 100, "unit": "%"}, {"measurement": "mortality at 168 h", "setting": "[4]; 300 mg/kg", "result": 100, "unit": "%"}, {"measurement": "mortality at 168 h", "setting": "[4]; 400 mg/kg", "result": 100, "unit": "%"}, {"measurement": "LD50 at 168 h", "setting": "[4]; single administration, 7 days, 95% limits 105-130", "result": 116, "unit": "mg/kg"}]}]}
